Measured values: patent US20240199642A1, “METHOD FOR OBTAINING RIFAPENTINE WITH A NEW CRYSTALLINE FORM” (INTERQUIM S.A. DE C.V., priority 2021, published 2024)

Columns and labels:
[1] = hygroscopicity under normal handling and storage conditions; type: physicochemical
[2] = stability under normal storage conditions and normal formulation manipulations; type: physicochemical

hygroscopicity ([1]; normal handling and storage conditions): non-hydroscopic
hygroscopicity ([1]; normal storage conditions and normal formulation manipulations): non-hygroscopic
stability [2]: stable
SMILES: CO[C@H]1/C=C/O[C@@]2(C)Oc3c(C)c(O)c4c(O)c(c(/C=N/N5CCN(C6CCCC6)CC5)c(O)c4c3C2=O)NC(=O)/C(C)=C\C=C\[C@H](C)[C@H](O)[C@@H](C)[C@@H](O)[C@@H](C)[C@H](OC(C)=O)[C@@H]1C [crystalline form of rifapentine, Rifapentine]
